The structures appear in SMILES notation. Entries after “also recorded” stand apart in the source; their conditions may differ.

This note sets out measurements from patent US12673921B2, “Substituted fluorine-containing imidazole salt compound, preparation method therefor, pharmaceutical composition thereof and use thereof” (XIAMEN VIVOHEALTHS TECHNOLOGY CO., LTD., priority 2019, dated 2026).

One assay relates to AMPK. Nature of the assay: AMPK activity assay at cell level (western blot of p-AMPKα and p-ACC in MEFs). The following applies: MEF cells, compound 10 nM, 2 h; multiple of the ratio relative to positive control AICAR (3 mM); band brightness by Image J. In kind it is cell-based, mouse. How it is done: The ability of compounds to activate AMPK in mouse embryonic fibroblasts (MEFs) was determined, which could be specifically carried out by detecting the phosphorylation level (p-AMPKα) of threonine at the 172nd position of AMPK and the phosphorylation level (p-ACC) of serine at the 79th position of the susbtrate ACC1/ACC2 of AMPK (FIG. 1 and Table I) by western blot.
The specific method was as follows: • (1) MEFs with loxP insertion sequences or of wild-type were plated in a 6-well plate and cultured in DMEM containing 10% serum. If a gene needed to be knocked out at this time, when the density of the corresponding MEFs with loxP insertion sequences reached about 30%, an adenovirus capable of expressing cre should be added to the culture well followed by further culture for more than 24 h; • (2) When the cell density was close to 90%, the cells were provided with fresh DMEM, at the same time, a compound (final concentration 10 nM) was added to the cells, followed by culture for 2 h, with an equal volume of DMSO as the negative control, and the cells treated with the addition of AICAR (3 mM) as the positive control; • (3) After sucking up the culture solution, the cells were lysed with 200 μL of a cell lysate (its formulation was given below), then the cells were scraped from the culture dish, ultrasonicated, and subjected to low temperature centrifugation at 20000 g for 10 min; • (4) The supernatant and an equal volume of 2*SDS solution (its formulation was given below) were mixed, and subjected to SDS-PAGE in a concentration of 8%, then the protein was transferred to PVDF membrane; each PVDF membrane was blocked with 25 mL of skim milk for 1 h, and then rinsed with TBST buffer (its formulation was given below) 3 times for 10 min each time; • (5) AMPKα subunit primary antibody (Cell Signaling Technology, #2532), primary antibody of phosphothreonine at the 172nd position of AMPK (Cell Signaling Technology, #2535), ACC primary antibody (Cell Signaling Technology, #3662), or primary antibody of phosphoserine at the 79th position of ACC (Cell Signaling Technology, #3661) was diluted in a ratio of 1:1000 with a primary antibody dilution (its formulation was given below), reacted with the PVDF membrane at room temperature for 12 h, and then rinsed 3 times with TBST buffer; • (6) A 1:1000 dilution of HRP-conjugated goat anti-rabbit secondary antibody (Jackson ImmunoResearch, 111-035-003) was added, reacted at room temperature for 1 h, and then rinsed 3 times with TBST buffer; • (7) The PVDF membrane was dried, reacted in an ECL mixture (WesternBright ECL HRP substrate, Advansta) and subjected to exposure with medical X-ray, developed, finally rinsed, dried, and then scanned to obtain data related to AMPK activation.
The formulations of reagents used were: • Cell lysate: 20 mM Tris-base, pH 7.5, 150 mM NaCl, 1 mM EDTA, 1 mM EGTA, 2.5 mM Sodium pyrophosphate, 1 mM β-glycerolphosphate, 1% Triton X-100 (v/v); • 2*SDS solution: 20% Glycerol (v/v), 4% SDS (m/v), 10% β-mecaptoethanol (v/v), 0.01% Bromophenol blue (m/v); • TBST buffer: 4.84% Tris-base (m/v), 8% NaCl (m/v), 0.1% Tween-20 (v/v); • Primary antibody dilution: TBST buffer containing 5% BSA (v/v).

Another assay concerns high-fat-fed obese mice. Nature of the assay: In vivo efficacy in high-fat-fed obese mice (body weight, liver slice). The following applies: 90 days. The arrangement: species or system mouse.
Description: […]

Regarding `Cc1n(CCCCCCCCCCCC(F)(F)C(F)(F)C(F)(F)C(F)(F)C(F)(F)F)cc[n+]1Cc1c(Cl)cccc1Cl.[Cl-]` [IB-33], in the assay with AMPK, the “Degree of AMPK activation, p-ACC/ACC” value came out at 0.94 and the “Degree of AMPK activation, p-AMPKα/AMPK” value worked out at 0.54. In the assay on high-fat-fed obese mice (s.c. 0.05, 0.15, 0.3 mg/kg once every two days), the body weight result is reported as “significantly reduce the body weight; also recorded: effective in reducing body weight”. The “fat accumulation in the liver” value in the assay with high-fat-fed obese mice (s.c., HE stained liver slice) is “improve the fat accumulation level in the liver; also recorded: effective in reducing fat accumulation in the liver”.
